Assay results as given in US20250270209A1 (INTERLINE THERAPEUTICS, INC., priority 2022, published 2025).

Assays:
LRRK2 wild type enzyme = LRRK2 wild type enzyme (Homo sapiens, UniProt Q5S007); assay: Biochemical Assay: LRRK2 TR-FRET (LanthaScreen) kinase assay with LRRKtide substrate; conditions: LRRK2 Inhibition, Table 8
Protocol: 10 mM compound solution was prepared in DMSO. An 11-point, 3-fold dilution was performed, with highest concentration at 10 μM. A 10 mM compound DMSO solution was added to Labcyte LDV plate and the compound concentration of source plate was 10 mM. The 1st compound concentration of Inter plate(Labcyte 384 well PP plate) was 4.938×10^−1 mM which was prepared by transferring 1.5 μL of 10 mM compound from source plate to 28.9 μL DMSO. The 2nd compound concentration of Inter plate was 1.829×10^−2 mM which was prepared by transferring 60 nL of 10 mM compound from source plate to 32.7 μL DMSO. The 3rd compound concentration of Inter plate was 6.774×10^−4 mM which was prepared by transferring 2.5 nL of 10 mM compound from source plate to 36.9 μL DMSO. 100 nL of reference compound was dispensed in column 1 for low control wells and 100 nL of DMSO in column 24 for high control wells. Compounds were dispensed to column 2 to 23 of assay plate and backfilled with DMSO to a total volume of 100 nL.
A 2X LRRK2 enzyme solution (final concentration 3 nM) was prepared in assay buffer (Tris-HCl pH8.0:50 mM, MgCl2: 5 mM, EDTA: 1 mM, Brij-35:0.01%, 2 mM DTT). A 2× substrate solution was prepared: LRRK2 tide substrate (final concentration 400 nM) and ATP (final concentration 25 μM) in assay buffer. 5 μL 2× LRRK2 enzyme solution was dispensed to each well in assay plate by Multidrop. Assay plate was spun at 1,000 rpm for 1 min and incubated for 15 min at 23° C. 5 μL 2× ATP/LRRKtide solution was dispensed to each well in assay plate by Multidrop. Assay plate was spun at 1,000 rpm for 1 min and incubated for 120 min at 23° C.
(§1) A 2× detection solution was prepared: Tb-pERM (pLRRKtide) antibody (final concentration 0.25 nM) and EDTA (final concentration 10 mM) in TR-FRET dilution buffer. 10 μL 2× detection solution was dispensed to each well in assay plate to stop kinase reaction by Multidrop. Assay plate was spun at 1,000 rpm for 1 min and incubate for 30 min at 23° C. Assay plate was then read on Envision configured for LanthaScreen® TR-FRET. pS935 LRRK2 Cell Assay

[1] = target: T1, wild type LRRK2 overexpressed in recombinant HEK-293T cells (Homo sapiens, UniProt Q5S007); assay: pS935 LRRK2 Cell Assay (HTRF, phospho-LRRK2 Ser935); type: cell-based; conditions: LRRK2 Inhibition, Table 8, 2 hours compound incubation
T1 construct: host or cells: HEK293T (transient transfection with pCMV-LRRK2 WT plasmid)
Protocol: as §1
The following protocol describes an in-vitro method for measuring phosphorylation at Ser935 on wild type LRRK2 overexpressed in recombinant HEK-293T cells. The method is based on HTRF technology, which combines Fluorescence Resonance Energy Transfer (FRET) with Time-Resolved measurement (TR). Phospho-LRRK2 (Ser935) is detected in a sandwich assay format using two different specific antibodies, one labelled with Eu3+-Cryptate (donor) and the second with d2(acceptor).When the fluorophores are in close proximity, excitation of the donor with a light source (flash lamp) stimulates FRET to the acceptor, which in turn fluoresces at a specific wavelength (665 nm). The fluorescence emission at 615 nm from the donor is also measured to allow ratiometric reduction of data. The specific signal is proportional to phospho-LRRK2 (Ser935).
Plasmid transient transfection: DMEM medium, FBS, DPBS, Trans-IT, OPTI-MEM reagents were allowed to warm to room temperature. HEK293T cells were cultured in DMEM +10% FBS complete medium in T150 flasks till around 80% confluency before transfection. Then cells were washed with 10 mL PBS and detached with 3 mL 0.25% typinsin. 30×10E6 HEK293T cells were seeded in DMEM +10% FBS complete medium to a 15 cm dish.
DNA, TransIT-LT1, OPTI-MEM complex were prepared: […] OPTI-MEM was added to a 15 mL cone tube, then […] plasmid was added to OPTI-MEM and mixed, followed by addition of 60 μL TransIT-LT1 to the plasmid OPTI-MEM mixture and mixing. The resulting mixture was incubated for 15 minutes.
The above plasmid, DNA and OPTI-MEM mixture was added dropwise to the 15 cm dish, ensuring the drops were evenly distributed. The culture dish was gently rocked back and forth and from left to right to evenly distribute the complex. The tranfected dish was incubated for 24 hours at 37° C., and 5% CO2.
Transfected HEK293T was collected in the 15 cm dish. Media was aspirated from tissue culture dish, and washed by dispensing 10 mL 1× DPBS into 15 cm dish. 1× DPBS was aspirated and 3 mL trypsin was dispensed to 15 cm dish. The dish was incubated with trypsin at room temperature for 3 min until the cells were detached. 10 mL of DMEM +10% FBS medium were added to 15 cm dish and triturated to ensure homogenous cell suspensions.
Homogenous cell suspensions were transferred to a 50 mL tube, and centrifuged for 5 minutes at 1,000 rmp/min. The supernatant was aspirated and resuspended with 20 mL complete medium. 1 mL of cell suspension was transferred for cell counting. The cell suspension was diluted to 2× 10E5 cells/ml. 50 μL cell suspensions were added to a 384-well plate. The plate was quick spun at 800 rpm for 1 minute, then incubate overnight at 37° C., 5% CO2.
Compound dispensing: compound was diluted (10 mM DMSO stock solution) and added to assay plate (top concentration: 10 μM, 3 fold serial dilution, 9 doses) with duplicates by Tecan liquid handler. The DMSO concentration of each well was normalized to 0.2%. Plates were quick spun at 1,000 rpm for 1 minute. Plates were incubated at 37° C., 5% CO2 for 2 hours.
1× lysis buffer solution supplemented with blocking reagent was prepared (e.g. 1 mL lysis buffer 4X+3 mL water+40 μL stock blocking reagent 100X). Antibodies working solution was prepared by diluting 40-fold d2 and Cryptate antibodies with detection buffer(e.g. 1520 μL detection buffer+40 μL d2-antibody stock solution+[…] Cryptate-antibody stock solution).
After 2 hours incubation, cell plates were taken out from the incubator. […]

Sequence of LRRK2 wild type enzyme (Q5S007 whole entry): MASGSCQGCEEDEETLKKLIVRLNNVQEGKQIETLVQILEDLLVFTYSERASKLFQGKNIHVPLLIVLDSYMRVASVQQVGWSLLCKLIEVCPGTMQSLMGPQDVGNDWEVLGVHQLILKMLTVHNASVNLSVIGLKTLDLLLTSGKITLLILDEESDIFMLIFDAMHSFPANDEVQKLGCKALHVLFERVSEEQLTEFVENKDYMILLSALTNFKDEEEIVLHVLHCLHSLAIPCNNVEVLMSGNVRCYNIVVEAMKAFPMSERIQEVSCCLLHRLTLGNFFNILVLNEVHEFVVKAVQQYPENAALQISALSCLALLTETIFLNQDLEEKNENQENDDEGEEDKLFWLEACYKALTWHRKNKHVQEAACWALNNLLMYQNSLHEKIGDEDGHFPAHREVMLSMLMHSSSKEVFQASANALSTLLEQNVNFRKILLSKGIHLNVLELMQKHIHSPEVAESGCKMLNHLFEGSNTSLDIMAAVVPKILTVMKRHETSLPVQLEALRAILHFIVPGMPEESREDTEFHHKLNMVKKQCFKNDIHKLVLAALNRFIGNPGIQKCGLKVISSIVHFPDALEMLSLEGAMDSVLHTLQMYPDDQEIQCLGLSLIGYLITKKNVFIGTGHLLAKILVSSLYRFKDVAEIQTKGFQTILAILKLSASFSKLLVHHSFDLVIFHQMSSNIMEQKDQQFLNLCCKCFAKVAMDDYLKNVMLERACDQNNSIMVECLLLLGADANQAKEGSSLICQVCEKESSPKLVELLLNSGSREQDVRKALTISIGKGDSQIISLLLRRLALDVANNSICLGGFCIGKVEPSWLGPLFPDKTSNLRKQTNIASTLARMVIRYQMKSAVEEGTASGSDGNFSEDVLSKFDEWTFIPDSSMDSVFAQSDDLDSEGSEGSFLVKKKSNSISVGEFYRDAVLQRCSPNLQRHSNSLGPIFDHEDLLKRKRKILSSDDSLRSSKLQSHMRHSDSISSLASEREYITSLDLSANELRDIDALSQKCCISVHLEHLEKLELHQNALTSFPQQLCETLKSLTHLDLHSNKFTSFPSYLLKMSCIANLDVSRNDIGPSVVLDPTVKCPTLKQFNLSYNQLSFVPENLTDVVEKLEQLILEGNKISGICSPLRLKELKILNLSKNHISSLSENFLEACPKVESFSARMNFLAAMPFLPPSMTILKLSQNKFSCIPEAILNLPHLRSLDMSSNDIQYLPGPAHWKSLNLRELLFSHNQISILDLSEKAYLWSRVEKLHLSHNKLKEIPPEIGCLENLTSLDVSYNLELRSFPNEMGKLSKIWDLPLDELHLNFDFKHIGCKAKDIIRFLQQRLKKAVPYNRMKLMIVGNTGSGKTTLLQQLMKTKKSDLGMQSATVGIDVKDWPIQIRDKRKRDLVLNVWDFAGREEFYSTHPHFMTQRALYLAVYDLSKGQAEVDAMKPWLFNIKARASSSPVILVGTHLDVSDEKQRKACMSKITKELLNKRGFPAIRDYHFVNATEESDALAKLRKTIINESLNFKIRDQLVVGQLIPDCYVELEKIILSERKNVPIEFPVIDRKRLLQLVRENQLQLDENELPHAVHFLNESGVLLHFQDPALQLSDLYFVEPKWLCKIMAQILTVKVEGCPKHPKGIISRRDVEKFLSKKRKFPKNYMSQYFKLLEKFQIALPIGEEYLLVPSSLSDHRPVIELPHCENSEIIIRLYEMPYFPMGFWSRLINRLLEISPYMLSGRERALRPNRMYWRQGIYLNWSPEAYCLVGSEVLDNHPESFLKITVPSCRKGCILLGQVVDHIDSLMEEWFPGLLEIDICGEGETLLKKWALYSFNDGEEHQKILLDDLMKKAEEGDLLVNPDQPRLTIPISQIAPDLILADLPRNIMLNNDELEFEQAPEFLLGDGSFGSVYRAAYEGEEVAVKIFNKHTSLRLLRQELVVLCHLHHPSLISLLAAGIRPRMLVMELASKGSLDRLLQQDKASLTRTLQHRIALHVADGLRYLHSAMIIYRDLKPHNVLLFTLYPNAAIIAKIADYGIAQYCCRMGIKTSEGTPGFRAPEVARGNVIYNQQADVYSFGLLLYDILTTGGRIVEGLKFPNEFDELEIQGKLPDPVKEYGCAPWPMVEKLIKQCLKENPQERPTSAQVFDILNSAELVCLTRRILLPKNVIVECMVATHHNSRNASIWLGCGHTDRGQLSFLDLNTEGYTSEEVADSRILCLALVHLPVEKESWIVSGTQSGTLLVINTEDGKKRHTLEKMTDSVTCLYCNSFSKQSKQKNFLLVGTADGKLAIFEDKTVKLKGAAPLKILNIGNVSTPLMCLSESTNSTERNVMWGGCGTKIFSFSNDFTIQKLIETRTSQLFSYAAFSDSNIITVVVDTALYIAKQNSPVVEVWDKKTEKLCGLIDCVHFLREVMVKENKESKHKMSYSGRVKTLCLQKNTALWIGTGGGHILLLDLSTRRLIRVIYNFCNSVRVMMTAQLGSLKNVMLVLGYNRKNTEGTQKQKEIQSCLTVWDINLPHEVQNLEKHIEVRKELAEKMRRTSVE
T1 sequence (Q5S007 whole entry): as above

Compound `Cc1cc(C)c(NC(=O)Cc2nc3cnc4ccc(C#N)cc4c3n2[C@@H]2CCO[C@H](C)C2)cn1` [Compound 236, N-(4,6-dimethyl-3-pyridyl){3-[(2R,4R)-2-methyltetrahydro-2H-pyran-4-yl]-12-cyano-3,5,8-triazatricyclo[7.4.0.0^2,6]trideca-1,4,6,8,10,12-hexaen-4-yl}acetamide] has an IC50 (LRRK2 wild type enzyme) of 0.356 nM and an IC50 [1] of 7.37 nM.

`CC(C)n1cc(NC(=O)Cc2nc3cnc4ccc(C#N)cc4c3n2[C@@H]2CCO[C@H](C)C2)cn1` [Compound 306, N-(1-isopropyl-4-pyrazolyl){3-[(2R,4R)-2-methyltetrahydro-2H-pyran-4-yl]-12-cyano-3,5,8-triazatricyclo[7.4.0.0^2,6]trideca-1(13),2(6),4,7,9,11-hexaen-4-yl}acetamide] gave an IC50 (LRRK2 wild type enzyme) of 0.721 nM and an IC50 [1] of 16 nM.

In the case of `C[C@@H]1C[C@H](n2c(CC(=O)Nc3cncn(C)c3=O)nc3cnc4ccc(C#N)cc4c32)CCO1` [Compound 223, N-(1-methyl-6-oxo-1,6-dihydro-5-pyrimidinyl){3-[(2R,4R)-2-methyltetahydro-2H-pyran-4-yl]-12-cyano-3,5,8-triazatricyclo[7.4.0.0^2,6]trideca-1,4,6,8,10,12-hexaen-4-yl}acetamide], the IC50 (LRRK2 wild type enzyme) is reported as 0.316 nM and the IC50 [1] is reported as 10.8 nM.

`C[C@@H]1C[C@H](n2c(CC(=O)N3CCCC3)nc3cnc4ccc(C#N)cc4c32)CCO1` [Compound 85, 1-[(2R,4R)-2-methyloxan-4-yl]-2-[2-oxo-2-(pyrrolidin-1-yl)ethyl]-1H-imidazo[4,5-c]quinoline-8-carbonitrile] gave an IC50 (LRRK2 wild type enzyme) of 5.11 nM and an IC50 [1] of 416 nM.

Compound `C[C@@H]1C[C@H](n2c(C3CC(=O)N([C@@H]4CCOC4)C3)nc3cnc4ccc(C#N)cc4c32)CCO1` (stereo partly drawn) [Compound 44, 1-[(2R,4R)-2-methyloxan-4-yl]-2-{5-oxo-1-[(3R)-oxolan-3-yl]pyrrolidin-3-yl}-1H-imidazo[4,5-c]quinoline-8-carbonitrile] has an IC50 (LRRK2 wild type enzyme) of 3.43 nM and an IC50 [1] of 555 nM.

In the case of `C[C@@H]1C[C@H](n2c(CC(=O)Nc3cccnc3O)nc3cnc4ccc(C#N)cc4c32)CCO1` [Compound 218, N-(2-hydroxy-3-pyridyl){3-[(2R,4R)-2-methyltetrahydro-2H-pyran-4-yl]-12-cyano-3,5,8-triazatricyclo[7.4.0.0^2,6]trideca-1,4,6,8,10,12-hexaen-4-yl}acetamide], the IC50 (LRRK2 wild type enzyme) is reported as 0.45 nM and the IC50 [1] is reported as 83.5 nM.

With `Cc1noc(C)c1NC(=O)Cc1nc2cnc3ccc(C#N)cc3c2n1[C@@H]1CCO[C@H](C)C1` [Compound 201, N-(3,5-dimethyl-4-isoxazolyl){3-[(2R,4R)-2-methyltetrahydro-2H-pyran-4-yl]-12-cyano-3,5,8-triazatricyclo[7.4.0.0^2,6]trideca-1,4,6,8,10,12-hexaen-4-yl}acetamide] the IC50 (LRRK2 wild type enzyme) was 0.377 nM and the IC50 [1] was 11.6 nM.

With `C[C@@H]1C[C@H](n2c(CC(=O)NCc3cnn(C)c3)nc3cnc4ccc(C#N)cc4c32)CCO1` [Compound 87, 2-{8-cyano-1-[(2R,4R)-2-methyloxan-4-yl]-1H-imidazo[4,5-c]quinolin-2-yl}-N-[(1-methyl-1H-pyrazol-4-yl)methyl]acetamide] the IC50 (LRRK2 wild type enzyme) was 0.473 nM and the IC50 [1] was 27.4 nM.

`C[C@@H]1C[C@H](n2c(CC(=O)Nc3cnn(C)c3)nc3cnc4ccc(C#N)cc4c32)CCO1` [Compound 88, 2-{8-cyano-1-[(2R,4R)-2-methyloxan-4-yl]-1H-imidazo[4,5-c]quinolin-2-yl}-N-(1-methyl-1H-pyrazol-4-yl)acetamide] was tested, and the IC50 (LRRK2 wild type enzyme) was 0.457 nM and the IC50 [1] was 24.4 nM.

With `Cc1nc(CNC(=O)Cc2nc3cnc4ccc(C#N)cc4c3n2[C@@H]2CCO[C@H](C)C2)no1` [Compound 259, N-[(5-methyl-1,2,4-oxadiazol-3-yl)methyl]{3-[(2R,4R)-2-methyltetrahydro-2H-pyran-4-yl]-12-cyano-3,5,8-triazatricyclo[7.4.0.0^2,6]trideca-1(9),2(6),4,7,10,12-hexaen-4-yl}acetamide] the IC50 (LRRK2 wild type enzyme) was 1.34 nM and the IC50 [1] was 132 nM.

`C[C@@H]1C[C@H](n2c([C@H]3CCN(S(C)(=O)=O)C3)nc3cnc4ccc(C#N)cc4c32)CCO1` [Compound 39, 2-[(3S)-1-methanesulfonylpyrrolidin-3-yl]-1-[(2R,4R)-2-methyloxan-4-yl]-1H-imidazo[4,5-c]quinoline-8-carbonitrile] gave an IC50 (LRRK2 wild type enzyme) of 5.27 nM and an IC50 [1] of 894 nM.

`COc1c(NC(=O)Cc2nc3cnc4ccc(C#N)cc4c3n2[C@@H]2CCO[C@H](C)C2)cnn1C` [Compound 224, N-(5-methoxy-1-methyl-4-pyrazolyl){3-[(2R,4R)-2-methyltetrahydro-2H-pyran-4-yl]-12-cyano-3,5,8-triazatricyclo[7.4.0.0^2,6]trideca-1,4,6,8,10,12-hexaen-4-yl}acetamide] gave an IC50 (LRRK2 wild type enzyme) of 1.42 nM and an IC50 [1] of 87.9 nM.

`C[C@@H]1C[C@H](n2c(CC(=O)NC3CCOc4cccnc43)nc3cnc4ccc(Cl)cc4c32)CCO1` (stereo partly drawn) [Compound 362, N-(3,4-dihydro-2H-1-oxa-5-azanaphth-4-yl){3-[(2R,4R)-2-methyltetrahydro-2H-pyran-4-yl]-12-chloro-3,5,8-triazatricyclo[7.4.0.0^2,6]trideca-1(9),2(6),4,7,10,12-hexaen-4-yl}acetamide] was tested, and the IC50 (LRRK2 wild type enzyme) was 0.553 nM and the IC50 [1] was 10.5 nM.

For `C[C@@H]1C[C@H](n2c(CNS(=O)(=O)C3CC3)nc3cnc4ccc(C#N)cc4c32)CCO1` [Compound 22, N-({8-cyano-1-[(2R,4R)-2-methyloxan-4-yl]-1H-imidazo[4,5-c]quinolin-2-yl}methyl)cyclopropanesulfonamide], the IC50 (LRRK2 wild type enzyme) was 6.8 nM and the IC50 [1] was 536 nM.

With `C[C@@H]1C[C@H](n2c(CC(=O)Nc3ccn(C4COC4)n3)nc3cnc4ccc(C#N)cc4c32)CCO1` [Compound 346, N-[1-(3-oxetanyl)-3-pyrazolyl]{2-[(2R,4R)-2-methyltetrahydro-2H-pyran-4-yl]-12-cyano-3,5,8-triazatricyclo[7.4.0.0^2,6]trideca-1(9),2(6),4,7,10,12-hexaen-4-yl}acetamide] the IC50 (LRRK2 wild type enzyme) was 0.555 nM and the IC50 [1] was 28.5 nM.
